Experimental data: patent publication US20110212165A1, “PHARMACEUTICAL COMPOSITIONS OF THE ISOLATED D-ENANTIOMER OF THE QUINAZOLINONE DERIVATIVE HALOFUGINONE” (priority 2005, published 2011)
Entries after “also recorded” stand apart in the source; their conditions may differ.

Experiments:
[1] = tested on: hAoSMC, HUVEC, Detroit 551, 5637, HT1080 and MDA-MB-435S cells; assay: Cell proliferation assay (methylene blue staining) of cultured, actively growing cells; type: cell-based, Human; conditions: all tested cells (hAoSMC, HUVEC, Detroit 551, 5637, HT1080, MDA-MB-435S); increasing concentrations, 72-96 hours after seeding
Description: The present study sought to compare the effect of each of the trans-halofuginone enantiomers to the racemic mixture on proliferation of cultured, actively growing cells. Human aortic smooth muscle cells (hAoSMC) and Human Umbilical Vein Endothelial Cells (HUVEC) were purchased from Clonetics and grown in Clonetics suitable growth media. Human skin fibroblasts (Detroit 551) and human fibrosarcoma (HT1080) cell lines were purchased from the American Type Culture Collection (ATCC) and grown in MEM supplemented with 10% FCS, 1 mM Sodium pyruvate, 2 mM L-glutamine and 0.2% antibiotic solution (Biological industries, Beit-Haemek, Israel). The human bladder carcinoma (5637) and human breast carcinoma (MDA-MB-435S) cell lines were purchased from the ATCC and grown in DMEM supplemented with 10% FCS and 0.2% antibiotic solution (Biological industries, Beit-Haemek, Israel). Cells were grown in 37° C. and 5% CO2. Cells were seeded in 96-well plates. Twenty-four hours later, increasing concentrations of tested compounds were added to the wells. When the cultures reached sub confluence (72-96 hours after seeding) the cells were fixed with 2.5% glutaraldehyde, washed three times with distilled water, followed by one wash with 0.1 M Boric buffer (pH 8.5). […] The optical density at 620 nm was determined using a micro plate spectrophotometer.

[2] = tested on: coccidiosis; conditions: versus racemic compound; cited from earlier work
[3] = tested on: collagen type I synthesis of skin fibroblasts (Detroit 551); assay: Collagen type I synthesis of skin fibroblasts (CICP, Prolagen-C ELISA); type: cell-based, Human; conditions: for effect on collagen type I synthesis of skin fibroblasts: Detroit 551, 75 μM ascorbic acid, 48 h, increasing concentrations
Protocol: Skin fibroblasts (Detroit 551) were seeded in a 96-well plate (3000 cells/well). Twenty-four hours later the cells were incubated for additional 48 h with 75 μM ascorbic acid and increasing concentrations of the tested compounds (induction medium was exchanged after 24 h). Cell medium was collected and the Prolagen-C ELISA kit of “METRA” was used for detection of collagen type I C′ propeptide (CICP) concentration.

SMILES	effect on cell proliferation [1]	coccidiostatic activity relative to the racemic compound [2]	effect on collagen type I synthesis of skin fibroblasts ([3]; listed as D-enantiomer of halofuginone)	activity in suppressing collagen type I synthesis relative to the racemic mixture ([3]; Detroit 551, versus racemic mixture of halofuginone, listed as D-enantiomer of halofuginone)	effect on collagen type I synthesis of skin fibroblasts [3]
O=C(CC1NCCCC1O)Cn1cnc2cc(Br)c(Cl)cc2c1=O (single isomer, unassigned; enantiomer 7) [D-enantiomer, 7-bromo-6-chloro-3-[3-(3-hydroxy-2-piperidinyl)-2-oxopropyl]-4(3H)-quinazolinone]	suppressed proliferation of all the tested cells in a dose dependent manner	three	suppressed collagen type I synthesis of skin fibroblasts in a dose dependent manner	about two	–
O=C(CC1NCCCC1O)Cn1cnc2cc(Br)c(Cl)cc2c1=O (single isomer, unassigned; enantiomer 7) [L-enantiomer, 7-bromo-6-chloro-3-[3-(3-hydroxy-2-piperidinyl)-2-oxopropyl]-4(3H)-quinazolinone]	no effect; also recorded: virtually inactive	–	–	–	no effect; also recorded: virtually inactive
